{
  "source": "patent US20220080043A1",
  "about": "“OIL/SURFACTANT MIXTURES FOR SELF-EMULSIFICATION” (priority 2019, published 2022)",
  "origin": "cited, not measured here",
  "conditions": "Table 2; surfactants used",
  "data": [
    {"substance": "sorbitan monooleate [Span80]", "values": [
      {"measurement": "HLB", "value": 4.3}
    ]}
  ]
}
